According to patent US9802993B2, “Method for producing a cell for protein production by treating a cell overexpressing a taurine transporter with methotrexate” (Chugai Seiyaku Kabushiki Kaisha, priority 2007, dated 2017):

What was measured:
Type in all cases: cell-based, Chinese hamster
[1] = tested on: CHO DXB 11 s host cells; assay: Sensitivity to MTX (survival rate) of parent host cells in medium without HT; conditions: 10 nM or 20 nM MTX added; CHO-S-SFM II/CD-CHO mixed medium without HT; FIG. 1
Text: (§1) Into CHO DXB 11 s cells serving as host cells, pHyg-TauT expression plasmids (see Referential Example 2 described later, FIG. 5) were introduced by electroporation to prepare DXB 11 s/TauT host cells in which TauT was strongly expressed. Subsequently, sensitivity to MTX was compared between the DXB 11 s/TauT host cells and the DXB 11 s host cells which were the parent strain.

[2] = tested on: DXB 11 s/TauT host cells; assay: Sensitivity to MTX (survival rate) of host cells strongly expressing TauT in medium without HT; conditions: 10 nM or 20 nM MTX added; CHO-S-SFM II/CD-CHO mixed medium without HT; FIG. 1
Text: as §1

[3] = tested on: GC33/DXB11s, GC33/DXB11s/TauT and GC33/DXB11s/TauT/CSAD strains; assay: Sensitivity to 200 nM MTX (survival rate) of anti-glypican-3 antibody-producing strains; conditions: MTX raised from 20 nM to 200 nM; CHO-S-SFM II/CD-CHO mixed medium; FIG. 2
Text: Then, pPur-CSAD expression plasmids (see Referential Example 4 described later, FIG. 6) were co-introduced into the above GC33/DXB11s/TauT strain to prepare a GC33/DXB11s/TauT/CSAD strain in which CSAD was strongly expressed. Subsequently, sensitivity to MTX of the GC33/DXB11s/TauT strain and the GC33/DXB11 s/TauT/C SAD strain was compared with that of the parent GC33/DXB11s strain. Because the parent strain was a strain capable of producing an antibody in which an antibody gene had been amplified to 20 copies or more (relative to the value before MTX treatment) by treatment with 20 nM MTX, the above strains could stably proliferate in the CHO-S-SFM II/CD-CHO mixed medium to which 20 nM MTX had been added.

[4] = tested on: GC33/DXB11s/TauT/CSAD strain; assay: Treatment with a high concentration of MTX: proliferation and antibody production ability; conditions: for amount of antibody production / number of viable cells: recovered, then cultured in 20 nM MTX, 15 mL tubes, initial 1×10^5 cells/mL, FIG. 4
Experimental: The GC33/DXB11s/TauT/CSAD strain, which was most MTX-resistant in Example 1, was subcultured in rotation culture for 28 days using the CHO-S-SFM II/CD-CHO mixed medium to which a high concentration of MTX (100 nM or 200 nM) had been added under the condition of 2×10^5 cells/mL in an initial stage, with the medium replaced every three to five days. […] By 14 days after that, i.e., on the 42nd day, the cells had begun to proliferate. The above two strains in which survival rates were recovered by subculture in the diluted medium (cells treated with 100 nM or 200 nM MTX) were cultured in 15 mL tubes using the CHO-S-SFM II/CD-CHO mixed medium in the presence of 20 nM MTX under the condition of 1×10^5 cells/mL in an initial stage. […] Also, the amount of antibody produced by the TauT/CSAD strain before treatment with a high concentration of MTX was 86 mg/L even when the number of viable cells grew to 19.6×10^5 cells/mL; thus, it was shown that the TauT/CSAD strain before treatment with a high concentration of MTX had the lowest production ability.

Question: Which results are given for CN(Cc1cnc2nc(N)nc(N)c2n1)c1ccc(C(=O)N[C@@H](CCC(=O)O)C(=O)O)cc1 [MTX, methotrexate]?
Answer: survival rate [1]: a tendency of accelerated decrease in the survival rate was observed; survival rate [2]: reduction in the survival rate was suppressed at a level equivalent to the survival rate observed in the absence of MTX; survival rate [3]: the survival rates in all of the above strains decreased; cell proliferation ([4]; 100 nM or 200 nM MTX, subculture in rotation culture for 28 days, FIG. 3): no cell proliferation was observed; amount of antibody production ([4]; strain treated with 100 nM MTX): 162 mg/L; number of viable cells ([4]; strain treated with 100 nM MTX): 22.3×10^5 cells/mL; amount of antibody production ([4]; strain treated with 200 nM MTX): 144 mg/L; number of viable cells ([4]; strain treated with 200 nM MTX): 18.0×10^5 cells/mL
